The source of these data is DBAASP.

By MIC is commonly meant the lowest concentration that inhibits growth of the organism.

In brackets after ≈: the same amount, converted by molar mass.

Some test systems named below: Staphylococcus aureus; Pediococcus acidilactici; Salmonella typhimurium; Alcaligenes faecalis; Micrococcus luteus A270; Serratia marcescens Db11; Bacillus megaterium; Escherichia coli D22; Klebsiella pneumoniae; Listeria monocytogenes; Bacillus thuringiensis; Aerococcus viridans; Bacillus subtilis QB935.
Common to all, as to experiment: ≥ marks a high value that may be exact or a test limit, other limits are often not marked, values filed in µg/mL are converted to µM
In experiment [1] the test system is Candida albicans ATCC 36232.
Experiment [2] relates to Shigella flexneri ATCC 203.
For experiment [3], the system named is Staphylococcus epidermidis ATCC 12228.
Experiment [4] relates to Escherichia coli ATCC 2592.
For experiment [5], the system named is Corynebacterium diphtheriae ATCC 8024.
In experiment [6] the test system is Staphylococcus aureus ATCC 6538.
Experiment [7] has as its system Micrococcus luteus ATCC 9341.
Experiment [8] relates to Bacillus subtilis ATCC 6633.
Experiment [9] relates to Pseudomonas aeruginosa ATCC 9027.
Experiment [10] concerns Enterobacter cloacae beta-12.
The subject of experiment [11] is Pseudomonas aeruginosa ATCC 82118.
Experiment [12] has as its system Staphylococcus saprophyticus.
Experiment [13] has as its system Staphylococcus aureus PCM 1944.
For experiment [14], the system named is Escherichia coli PCM 2057.

Consider `CC(C)[C@H](NC(=O)[C@H](CS)NC(=O)[C@@H](NC(=O)[C@H](CCCN=C(N)N)NC(=O)[C@H](CCCCN)NC(=O)CNC(=O)[C@@H](N)CC(N)=O)C(C)C)C(=O)N[C@@H](CS)C(=O)N[C@@H](CCCN=C(N)N)C(N)=O` [NGKRVCVCR], for which the MIC was at least 96.7 µM in experiment [1]; at least 96.7 µM in [2]; over 96.7 µM in experiment [3]; at least 96.7 µM in experiment [4]; at least 96.7 µM in [5]; over 96.7 µM in experiment [6]. Also, the MIC in [7] is at least 96.7 µM; with Staphylococcus aureus, over 96.7 µM; in experiment [8], at least 96.7 µM; in experiment [9], over 96.7 µM.
With `CC[C@H](C)[C@@H]1NC(=O)[C@H](CC(=O)O)NC(=O)[C@@H](NC(=O)[C@@H](NC(=O)[C@H](C)N)[C@@H](C)O)CSSC[C@@H]2NC(=O)[C@H](CCC(N)=O)NC(=O)CNC(=O)CNC(=O)[C@H](CCCCN)NC(=O)[C@H](Cc3ccc(O)cc3)NC(=O)CNC(=O)[C@H](CCCCN)NC(=O)[C@H]([C@@H](C)CC)NC(=O)[C@H](C(C)C)NC(=O)[C@@H]3CSSC[C@@H](C(=O)N[C@@H](CCCN=C(N)N)C(=O)N[C@@H](CCCN=C(N)N)C(=O)O)NC(=O)[C@H](Cc4cnc[nH]4)NC(=O)[C@H](CSSC[C@H](NC(=O)CNC(=O)[C@H](C)NC(=O)[C@H](Cc4cnc[nH]4)NC(=O)[C@H](CC(N)=O)NC(=O)[C@@H]4CCCN4C(=O)[C@H]([C@@H](C)O)NC(=O)[C@H](C(C)C)NC(=O)[C@H](Cc4c[nH]c5ccccc45)NC(=O)[C@H](CCC(N)=O)NC(=O)[C@H](CO)NC(=O)[C@H](CCC(N)=O)NC(=O)[C@H](Cc4ccccc4)NC(=O)[C@H](CO)NC(=O)[C@H](CC(C)C)NC1=O)C(=O)N[C@@H](C)C(=O)N[C@@H](CC(C)C)C(=O)N[C@@H](Cc1cnc[nH]1)C(=O)N3)NC(=O)[C@H](C(C)C)NC(=O)[C@H]([C@@H](C)O)NC(=O)[C@H]([C@@H](C)CC)NC(=O)[C@H](CCCCN)NC2=O` [ATCDILSFQSQWVTPNHAGCALHCVIKGYKGGQCKITVCHCRR], the MIC against Pediococcus acidilactici is 3.54 µM (≈ 16.7 µg/mL); against Salmonella typhimurium, 5 µM (≈ 23.6 µg/mL); in the experiment with Alcaligenes faecalis it was 5 µM (≈ 23.6 µg/mL); in the experiment on Micrococcus luteus A270, 0.212 µM (≈ 1 µg/mL); in [10], 5 µM (≈ 23.6 µg/mL); against Serratia marcescens Db11 it was 5 µM (≈ 23.6 µg/mL). Also, the MIC against Bacillus megaterium was 0.212 µM (≈ 1 µg/mL); in the experiment on Escherichia coli D22, 3.54 µM (≈ 16.7 µg/mL); in experiment [11], 5 µM (≈ 23.6 µg/mL); with Klebsiella pneumoniae, over 5 µM; in [12], 1.77 µM (≈ 8.36 µg/mL); in the experiment on Staphylococcus aureus, 0.88 µM (≈ 4.16 µg/mL). The MIC turned out to be 5 µM (≈ 23.6 µg/mL) against Listeria monocytogenes, 5 µM (≈ 23.6 µg/mL) with Bacillus thuringiensis, 0.424 µM (≈ 2.01 µg/mL) in the experiment with Aerococcus viridans and 3.54 µM (≈ 16.7 µg/mL) against Bacillus subtilis QB935.
Consider `CC[C@H](C)[C@@H]1NC(=O)[C@H](CO)NC(=O)[C@H](CCCCN)NC(=O)[C@@H](NC(=O)[C@H](CCCN=C(N)N)NC(=O)[C@H](Cc2ccccc2)NC(=O)[C@H](Cc2cnc[nH]2)NC(=O)[C@@H](NC(=O)[C@H](CCCCN)NC(=O)[C@H](Cc2ccccc2)NC(=O)[C@@H]2CCCN2C(=O)[C@@H](NC(=O)[C@H](CC(N)=O)NC(=O)[C@H](C)NC(=O)[C@H](C)N)[C@@H](C)CC)C(C)C)CSSC[C@@H](C(=O)O)NC(=O)[C@H](Cc2ccccc2)NC1=O` [AANIPFKVHFRCKSIFC], for which the MIC in experiment [13] and in experiment [14] was at least 505 µM in each case.
